Test results published in the NIST ThermoML archive (doi:10.1016/j.jct.2015.07.034).
Numbers after ± are expanded uncertainties.

Details: for Normal melting temperature: DTA

Q: Which results are given for `CCn1cc[n+](C)c1.O=S(=O)([N-]S(=O)(=O)C(F)(F)C(F)(F)F)C(F)(F)C(F)(F)F`?
A: Normal melting temperature (Crystal): 16.00 ± 2 °C; Glass transition temperature (Glass, DSC): -52.00 ± 2 °C

Q: For `CCn1cc[n+](C)c1.O=S(=O)([O-])C(F)(F)F` [1-ethyl-3-methylimidazolium trifluoromethanesulfonate], which Normal melting temperature (Crystal) is on record?
A: -14.00 ± 2 °C

Q: Which results are given for `CC[n+]1ccccc1.O=S(=O)([N-]S(=O)(=O)C(F)(F)F)C(F)(F)F` [1-ethylpyridinium bis[(trifluoromethyl)sulfonyl]imide]?
A: Normal melting temperature (Crystal 1): 32.00 ± 2 °C; Triple point temperature (Crystal 2, DSC): 294.15 ± 2 K

Q: With `CC[n+]1ccccc1.CS(=O)(=O)[O-]` [1-ethylpyridinium methanesulfonate] as the compound, how does the Normal melting temperature (Crystal) read?
A: 62.00 ± 2 °C

Q: For `CC[n+]1ccccc1.O=S(=O)([O-])C(F)(F)F` [1-ethylpyridinium triflate], which Normal melting temperature (Crystal 1) is on record?
A: 32.00 ± 2 °C

Q: And the Triple point temperature (Crystal 2, DSC)?
A: 266.15 ± 2 K

Q: Which results are given for `C[N+](C)(C)CCO.O=S(=O)([N-]S(=O)(=O)C(F)(F)F)C(F)(F)F` [choline bis(trifluoromethylsulfonyl)imide]?
A: Normal melting temperature (Crystal 1): 33.00 ± 2 °C; Triple point temperature (Crystal 2, DSC): 275.15 ± 2 K; Triple point temperature (Metastable crystal, DSC): 300.15 ± 2 K
